The record followed here is US11028072B2, “2,4-diamino-6-ethylpyrimidine derivatives with antimalarial activities against Plasmodium falciparum” (National Science and Technology Development Agency, priority 2015, dated 2021).

Usually Ki stands for a dissociation constant, usually derived from enzyme kinetics or from competition with a known ligand. As a reminder, the melting point is the temperature, or range, at which the solid turns liquid.

In series [1] the target is wild type (WT) pfDHFR (Plasmodium falciparum, UniProt P13922, N108S/R59C). The series is described as follows: Inhibition of wild type pfDHFR (Ki). Type of series: biochemical. On the procedure: (§1) The synthesized 2,4-diamino-6-ethylpyrimdine derivatives as the hydrochloride salts were tested for the activities against Plasmodium falciparum (P. falciparum) according to the standard methods. These include the inhibition of dihydrofolate reductase (DHFR) enzymes of P. falciparum including, wild type (WT) and quadruple mutants (N51IC59RS108NI164L) (QM). The inhibition was expressed as inhibition constants (Ki) in nano molar (nM).
Chain of wild type (WT) pfDHFR (P13922 whole entry R59C/N108S): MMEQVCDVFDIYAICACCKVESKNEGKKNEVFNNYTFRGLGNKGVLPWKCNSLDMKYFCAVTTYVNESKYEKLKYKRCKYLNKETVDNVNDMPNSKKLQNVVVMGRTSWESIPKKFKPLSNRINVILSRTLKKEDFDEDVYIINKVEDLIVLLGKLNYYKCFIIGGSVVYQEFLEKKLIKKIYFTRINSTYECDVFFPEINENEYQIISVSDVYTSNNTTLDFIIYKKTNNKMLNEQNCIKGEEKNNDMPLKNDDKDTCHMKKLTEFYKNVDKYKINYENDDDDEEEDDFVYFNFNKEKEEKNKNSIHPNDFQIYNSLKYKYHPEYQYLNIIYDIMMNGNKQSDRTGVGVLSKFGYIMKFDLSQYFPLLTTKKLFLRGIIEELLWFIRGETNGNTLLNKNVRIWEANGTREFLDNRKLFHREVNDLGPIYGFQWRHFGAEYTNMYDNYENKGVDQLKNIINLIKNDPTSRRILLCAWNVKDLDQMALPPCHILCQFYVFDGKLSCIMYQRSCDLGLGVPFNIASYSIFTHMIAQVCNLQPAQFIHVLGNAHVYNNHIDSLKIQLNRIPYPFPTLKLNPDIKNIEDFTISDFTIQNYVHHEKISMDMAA

The target of series [2] is quadruple mutant N51I + C59R + S108N + I164L (QM) pfDHFR (Plasmodium falciparum, UniProt P13922, I164L/N51I). The series is described as follows: Inhibition of quadruple mutant pfDHFR (Ki). Type of series: biochemical. On the procedure:
as §1

Series [3] addresses T1, Human dihydrofolate reductase (hDHFR) (Homo sapiens, UniProt P00374).
T1 sequence (P00374 1-187): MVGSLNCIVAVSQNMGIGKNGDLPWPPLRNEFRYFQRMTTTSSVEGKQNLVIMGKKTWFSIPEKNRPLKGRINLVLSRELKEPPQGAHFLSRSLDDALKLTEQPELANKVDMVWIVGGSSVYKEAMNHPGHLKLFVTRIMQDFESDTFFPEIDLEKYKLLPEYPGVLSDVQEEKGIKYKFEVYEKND
The series is described as follows: Inhibition of human dihydrofolate reductase (Ki). Type of series: biochemical. The note with it: human DHFR; hydrochloride salts.

Series [4] has as its system P. falciparum TM4/8.2 (wild type). The series is described as follows: microbe, parasite or virus in culture. Type of series: cell-based, Plasmodium falciparum. To be noted: Plasmodium falciparum, read-out: IC50 P. falciparum TM4/8.2 (WT). From the text:
(§2) In Vitro Antimalarial Activites Against P. falciparum and Cytotoxicity Towards Mammalian Cells (Vero Cells)

For series [5], the system named is P. falciparum V1/S (N51I + C59R + S108 + I164L). Put plainly: microbe, parasite or virus in culture. To be noted: Plasmodium falciparum, read-out: IC50 P. falciparum V1/S. Type of series: cell-based, Plasmodium falciparum.
Description: as §2

A short description of series [6]: in vitro. The note with it: African green monkey.
Description: as §2

Where [7] appears, read: in vitro, wild-type strain TM4/8.2.
The mark [8] stands for this setting: in vitro, quadruple mutant strain V1/S.

Structures are written as SMILES. Where a name gives a salt, the structure may show the parent alone. Read-outs that look alike come from different tables or passages of the source.

Chain of quadruple mutant N51I + C59R + S108N + I164L (QM) pfDHFR (P13922 whole entry N51I/I164L): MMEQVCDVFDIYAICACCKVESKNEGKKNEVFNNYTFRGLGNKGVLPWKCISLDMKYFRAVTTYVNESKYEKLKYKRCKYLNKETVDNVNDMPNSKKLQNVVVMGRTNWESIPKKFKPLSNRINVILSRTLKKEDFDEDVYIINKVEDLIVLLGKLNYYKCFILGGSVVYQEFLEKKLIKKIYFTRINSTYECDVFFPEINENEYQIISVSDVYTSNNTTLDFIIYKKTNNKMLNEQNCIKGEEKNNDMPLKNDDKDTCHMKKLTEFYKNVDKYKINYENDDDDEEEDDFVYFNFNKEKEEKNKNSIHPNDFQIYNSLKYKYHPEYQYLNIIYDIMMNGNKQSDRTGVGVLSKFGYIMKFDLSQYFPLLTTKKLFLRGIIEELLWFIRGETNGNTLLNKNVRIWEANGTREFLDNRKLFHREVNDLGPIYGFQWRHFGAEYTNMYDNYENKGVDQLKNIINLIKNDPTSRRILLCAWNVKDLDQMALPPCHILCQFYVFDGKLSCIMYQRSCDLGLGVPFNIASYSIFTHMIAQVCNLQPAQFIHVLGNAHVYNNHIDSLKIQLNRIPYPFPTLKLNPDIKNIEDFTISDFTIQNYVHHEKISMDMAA

On to `CCc1nc(N)nc(N)c1OCCc1cn(-c2ccc(C(=O)OC)cc2)nn1` [Compound 21], for which the Ki in series [1] came out at 0.48 ± 0.1 nM; in series [2], 8.56 ± 1.46 nM; in series [3], 1060 ± 89.5 nM. Besides, the IC50 in series [4] (setting [7]) was 490 ± 70 nM; in series [5] (setting [8]) it was greater than 25000 nM; in series [6] it was greater than 25000 nM.

`CCc1nc(N)nc(N)c1OCc1csc(-c2cccc(C(=O)OC)c2)n1` [Compound 65]: the Ki stood at 0.51 ± 0.04 nM in series [1], 56.7 ± 5.79 nM in series [2] and 195 ± 8.2 nM in series [3]. In addition, the IC50 in series [4] was 400 ± 80 nM; in series [5], greater than 50000 nM; in series [6], greater than 50000 nM.

For `CCc1nc(N)nc(N)c1OCc1cc(-c2ccc(C(=O)O)cc2)no1` [Compound 44], the Ki is 3.75 ± 0.31 nM in series [1], 245 ± 34.6 nM in series [2] and greater than 100000 nM in series [3]. The IC50 in series [4] (setting [7]) is 7770 ± 1470 nM; in series [5] (setting [8]), greater than 10000 nM; in series [6], greater than 10000 nM.

Consider `CCc1nc(N)nc(N)c1OCc1cn(-c2ccc([N+](=O)[O-])cc2)nn1` [Compound 17], for which the inhibitory constant (Ki) in series [1] is 42.7 ± 0.99 nM; in series [2], 1990 ± 318 nM; in series [3] it was greater than 500000 nM. The IC50 is 4250 ± 1370 nM in series [4] (setting [7]), 14900 ± 3820 nM in series [5] (setting [8]) and greater than 50000 nM in series [6].

Consider `CCc1nc(N)nc(N)c1OCc1cc(-c2ccc([N+](=O)[O-])cc2)no1` [Compound 43], for which the figures for the Ki in series [1], in series [2] and in series [3] were 4.02 ± 0.57 nM, 306 ± 36.5 nM and greater than 100000 nM, respectively. Moreover, the IC50 in series [4] (setting [7]) is 33200 ± 14200 nM; in series [5] (setting [8]), greater than 50000 nM; in series [6] it was greater than 50000 nM.

As to `CCc1nc(N)nc(N)c1OCc1csc(-c2ccc(C(=O)OC)cc2)n1` [Compound 74], the Ki in series [1] turned out to be 0.65 ± 0.06 nM; in series [2], 34 ± 5.42 nM; in series [3], 447 ± 110 nM. For the same molecule, the IC50 in series [4] was 400 ± 130 nM; in series [5], 15900 ± 2110 nM; in series [6] it was greater than 50000 nM.

As for `CCc1nc(N)nc(N)c1OCc1coc(-c2ccc(Cl)cc2)n1` [Compound 55], the Ki is 1.14 ± 0.17 nM in series [1], 32.9 ± 4.13 nM in series [2] and greater than 100000 nM in series [3]. Besides, the IC50 in series [4] (setting [7]) is 870 ± 110 nM; in series [5] (setting [8]) it was greater than 25000 nM; in series [6] it was greater than 25000 nM.

On to `CCc1nc(N)nc(N)c1OCCCc1cn(-c2ccc(C(=O)O)cc2)nn1` [Compound 25], for which the Ki was 0.35 ± 0.04 nM in series [1], 3.52 ± 0.73 nM in series [2] and 44.8 ± 1.92 nM in series [3]. Also, the figures for the IC50 in series [4], in series [5] and in series [6] were 36 ± 10 nM, 4650 ± 120 nM and 6400 ± 1080 nM, respectively.

Turning to `CCc1nc(N)nc(N)c1OCc1cn(Cc2ccc(C(=O)O)cc2)nn1` [Compound 29], the inhibition constant Ki in series [1] was 14.5 ± 1.62 nM; in series [2], 477 ± 32.3 nM. The “Ki hDHFR” value in series [3] is recorded as “High”. Besides, the IC50 in series [4] (setting [7]), in series [5] (setting [8]) and in series [6] was greater than 25000 nM in each case.

Turning to `CCc1nc(N)nc(N)c1OCc1csc(-c2cccc([N+](=O)[O-])c2)n1` [Compound 62], the results for the Ki in series [1], in series [2] and in series [3] were 0.74 ± 0.07 nM, 53.2 ± 8.93 nM and 134 ± 7.24 nM, respectively. The values for the IC50 in series [4] (setting [7]), in series [5] (setting [8]) and in series [6] were 460 ± 70 nM, 3980 ± 520 nM and 17900 ± 6230 nM, respectively.

Take `CCc1nc(N)nc(N)c1OCc1csc(-c2ccc(OCC(=O)OCc3ccccc3)cc2)n1` [Compound 72]: the results for the inhibition constant (Ki) in series [1], in series [2] and in series [3] were 0.8 ± 0.09 nM, 30.3 ± 5.63 nM and 140 ± 22 nM, respectively. Moreover, the IC50 was 230 ± 30 nM in series [4] (setting [7]), greater than 50000 nM in series [5] (setting [8]) and greater than 50000 nM in series [6].

Turning to `CCc1nc(N)nc(N)c1OCCc1cn(Cc2ccc(O)cc2)nn1` [Compound 30], the Ki in series [1] came out at 8.86 ± 0.8 nM; in series [2], 756 ± 62.6 nM. Moreover, the “Ki hDHFR” value in series [3] is given as “High”. For the same molecule, the IC50 in series [4] (setting [7]) is 12400 ± 4710 nM; in series [5] (setting [8]), greater than 50000 nM; in series [6], greater than 50000 nM.

In the case of `CCc1nc(N)nc(N)c1OCc1cc(-c2ccccc2)no1` [Compound 33], the results for the Ki in series [1], in series [2] and in series [3] were 0.51 ± 0.08 nM, 38.1 ± 6.27 nM and 1480 ± 68.9 nM, respectively. In addition, the figures for the IC50 in series [4] (setting [7]), in series [5] (setting [8]) and in series [6] were 670 ± 130 nM, 15700 ± 4480 nM and greater than 25000 nM, respectively.

In the case of `CCc1nc(N)nc(N)c1-c1cn(CCCc2ccccc2)nn1` [Compound 8], the inhibition constant (Ki) in series [1] amounted to 2.82 ± 0.1 nM; in series [2], 49.8 ± 1.89 nM; in series [3], 3680 ± 480 nM. The IC50 in series [4] is 5580 ± 670 nM; in series [5], 32300 ± 3060 nM; in series [6] it was greater than 50000 nM.

As to `CCc1nc(N)nc(N)c1OCc1cc(-c2cccc(C(=O)O)c2)no1` [Compound 40], the Ki in series [1] was 1.28 ± 0.13 nM; in series [2], 2.12 ± 0.17 nM; in series [3] it was 279 ± 24.7 nM. Besides, the figures for the IC50 in series [4] (setting [7]), in series [5] (setting [8]) and in series [6] were 280 ± 130 nM, 3380 ± 1060 nM and greater than 50000 nM, respectively.

Consider `CCc1nc(N)nc(N)c1OCCCc1cn(-c2ccc(C(=O)OC)cc2)nn1` [Compound 24], for which the Ki in series [1] was 0.15 ± 0.02 nM; in series [2], 1.9 ± 0.08 nM; in series [3], 19 ± 1.92 nM. Moreover, the IC50 in series [4] is 55 ± 6 nM; in series [5], greater than 2000 nM; in series [6] it was greater than 2000 nM.

In turn, `CCc1nc(N)nc(N)c1OCc1coc(-c2cccc(OCC(=O)O)c2)n1` (as salt: hydrochloride) (hydrate or solvate) [Compound 54] gave a melting point of 203 to 204 °C.

For `CCc1nc(N)nc(N)c1OCc1csc(-c2ccc(C)cc2)n1` (as salt: hydrochloride) [Compound 67], the melting point fell in the range of 235 to 236 °C.

`CCc1nc(N)nc(N)c1-c1cn(-c2ccccc2)nn1` (as salt: hydrochloride) [Compound 1] came in with a melting point of 273.2 to 274.5 °C.

The molecule `CCc1nc(N)nc(N)c1OCc1coc(-c2ccc(OCC(=O)O)cc2)n1` (as salt: hydrochloride) (hydrate or solvate) [Compound 57] returned a melting point of 195.5 to 197.5 °C.

`CCc1nc(N)nc(N)c1OCc1csc(-c2ccc(OCC(=O)OCc3ccccc3)cc2)n1` (as salt: hydrochloride) (hydrate or solvate) [Compound 72]: the melting point lay in the range of 178 to 180 °C.

On to `CCc1nc(N)nc(N)c1-c1cn(Cc2ccc(C(=O)OC)cc2)nn1` (as salt: hydrochloride) [Compound 4], for which the melting point is 222 to 223 °C.

In turn, `CCc1nc(N)nc(N)c1-c1cn(CCCc2ccccc2)nn1` (as salt: hydrochloride) [Compound 8] registered a melting point of 233 to 235 °C.

`CCc1nc(N)nc(N)c1OCc1csc(-c2cccc(C)c2)n1` (as salt: hydrochloride) [Compound 61] showed a melting point of 232 to 233 °C.

With `CCc1nc(N)nc(N)c1OCc1csc(-c2ccc(Cl)cc2)n1` (as salt: hydrochloride) [Compound 70], the melting point fell in the range of 230 to 232 °C.

`CCc1nc(N)nc(N)c1OCc1cc(-c2cccc(OC)c2)no1` (as salt: hydrochloride) [Compound 38] had a melting point of 211.5 to 212.5 °C.

The molecule `CCc1nc(N)nc(N)c1-c1cn(CCOc2ccc(Cl)cc2)nn1` (as salt: hydrochloride) [Compound 9] came in with a melting point of 173.5 to 175 °C.

In turn, `CCc1nc(N)nc(N)c1OCCc1coc(-c2ccccc2)n1` (as salt: hydrochloride) [Compound 58] registered a melting point of 254.5 to 255.5 °C.

`CCc1nc(N)nc(N)c1OCc1coc(-c2ccccc2)n1` (as salt: hydrochloride) [Compound 50] had a melting point of 231 to 232 °C.

`CCc1nc(N)nc(N)c1OCCc1csc(-c2ccccc2)n1` (as salt: hydrochloride) [Compound 76] displayed a melting point of 215 to 217 °C.

Turning to `CCc1nc(N)nc(N)c1OCc1cc(-c2ccc(C(F)(F)F)cc2)no1` [Compound 41], the inhibitory constant (Ki) in series [1] is 4.29 ± 0.31 nM; in series [3] it was greater than 100000 nM. Moreover, the figures for the IC50 in series [4] (setting [7]), in series [5] (setting [8]) and in series [6] were 6780 ± 2210 nM, greater than 10000 nM and greater than 10000 nM, respectively.

On to `CCc1nc(N)nc(N)c1OCc1cc(-c2cccc(C(=O)O)c2)no1` (as salt: hydrochloride) [Compound 40], for which the melting point was 192 to 194 °C.

`CCc1nc(N)nc(N)c1OCc1cn(Cc2ccc(O)cc2)nn1` (as salt: hydrochloride) [Compound 28] yielded a melting point of 224.2 to 225.2 °C.

As to `CCc1nc(N)nc(N)c1-c1cn(Cc2ccccc2)nn1` (as salt: hydrochloride) [Compound 3], the melting point lay within 255.5 to 256.5 °C.

The molecule `CCc1nc(N)nc(N)c1-c1cn(Cc2ccc(OC(=O)N(c3ccccc3)c3ccccc3)cc2)nn1` (as salt: hydrochloride) [Compound 6] came in with a melting point of 138 to 139 °C.

Molecule `CCc1nc(N)nc(N)c1OCc1coc(-c2cccc([N+](=O)[O-])c2)n1` (as salt: hydrochloride) [Compound 52] came in with a melting point of 221.5 to 222.5 °C.
